Results taken from US4156724A, “N-acylamino-alpha-arylacetamido cephalosporins and antibacterial compositions and methods containing them” (Sumitomo Chemical Company, Limited, priority 1974, dated 1979).
In brackets after ≈: the same amount, converted by molar mass.

Tests used:
Type in all cases: cell-based
[1] = system: Proteus vulgaris HX 19; experiment: Minimum Inhibitory Concentration, Proteus vulgaris HX 19; settings: HX19; Proteus vulgaris HX 19; read-out: Minimum Inhibitory Concentration
Protocol: (§1) anti-microbial activity tests were carried out on the compounds obtained in the Examples.

[2] = system: Escherichia coli NIHJ; experiment: Minimum Inhibitory Concentration, Escherichia coli NIHJ; settings: Escherichia coli NIHJ; read-out: Minimum Inhibitory Concentration
Protocol: as §1

[3] = system: Klebsiella pneumoniae 602; experiment: Minimum Inhibitory Concentration, Klebsiella pneumoniae 602; settings: Klebsiella pneumoniae, 602, Klebsiella pneumoniae 602; read-out: Minimum Inhibitory Concentration
Protocol: as §1

[4] = system: Staphylococcus aureus 209 P; experiment: Minimum Inhibitory Concentration, Staphylococcus aureus 209 P; settings: Staphylococcus aureus 209 P; read-out: Minimum Inhibitory Concentration
Protocol: as §1

[5] = system: Enterobacter aerogeneus No. 75; experiment: Minimum Inhibitory Concentration, Enterobacter aerogeneus No. 75; settings: Enterobacter aerogeneus No. 75; read-out: Minimum Inhibitory Concentration
Protocol: as §1

[6] = system: Serratia No. 72; experiment: Minimum Inhibitory Concentration, Serratia No. 72
Protocol: as §1

[7] = system: Pseudomonas aeruginosa 104; experiment: Minimum Inhibitory Concentration, Pseudomonas aeruginosa 104; settings: Pseudomonas aeruginosa 104; read-out: Minimum Inhibitory Concentration
Protocol: as §1

[8] = system: Staphylococcus aureus FS 289; experiment: Minimum Inhibitory Concentration, Staphylococcus aureus FS 289; settings: FS289; Staphylococcus aureus FS 289, strain resistant to penicillin; read-out: Minimum Inhibitory Concentration
Protocol: as §1
*Staphylococcus aureus FS 289: strain resistant to penicillin

| Compound | MIC [1] [µg/mL] | MIC [2] [µg/mL] | MIC [3] [µg/mL] | MIC [4] [µg/mL] | MIC [5] [µg/mL] | MIC [6] [µg/mL] | MIC [7] [µg/mL] | MIC [8] [µg/mL] |
| --- | --- | --- | --- | --- | --- | --- | --- | --- |
| O=C(O)C1=C(CSc2nncs2)CSC2C(NC(=O)C(NC(=O)c3cncnc3O)c3ccc(CO)cc3)C(=O)N12 (centres unmarked) [Example 95] | 0.78 (≈ 1.27 µM) | 25 (≈ 40.6 µM) | 12.5 (≈ 20.3 µM) | 0.78 (≈ 1.27 µM) | 25 (≈ 40.6 µM) | 50 (≈ 81.2 µM) | 25 (≈ 40.6 µM) | 12.5 (≈ 20.3 µM) |
| CC(=O)OCC1=C(C(=O)O)N2C(=O)C(NC(=O)C(NC(=O)c3cnc4nc(C)ccc4c3O)c3ccc(CO)cc3)C2SC1 (centres unmarked) [Example 99] | 0.78 (≈ 1.25 µM) | 6.25 (≈ 10.1 µM) | 6.25 (≈ 10.1 µM) | 1.56 (≈ 2.51 µM) | 12.5 (≈ 20.1 µM) | 50 (≈ 80.4 µM) | 12.5 (≈ 20.1 µM) | 6.25 (≈ 10.1 µM) |
| Cc1ccc2c(O)c(C(=O)NC(C(=O)NC3C(=O)N4C(C(=O)O)=C(CSc5nnc(C)s5)CSC34)c3ccc(CO)cc3)cnc2n1 (centres unmarked) [Example 100] | 0.39 (≈ 0.562 µM) | 3.13 (≈ 4.51 µM) | 6.25 (≈ 9.01 µM) | 1.56 (≈ 2.25 µM) | 6.25 (≈ 9.01 µM) | 50 (≈ 72.1 µM) | 6.25 (≈ 9.01 µM) | 6.25 (≈ 9.01 µM) |
| O=C(O)C1=C(CSc2ccc(O)nn2)CSC2C(NC(=O)C(NC(=O)c3cnc4cccnc4c3O)c3ccc(CO)cc3)C(=O)N12 (centres unmarked) [Example 102] | 0.39 (≈ 0.577 µM) | 3.13 (≈ 4.63 µM) | 3.13 (≈ 4.63 µM) | 1.56 (≈ 2.31 µM) | 12.5 (≈ 18.5 µM) | 25 (≈ 37 µM) | 6.25 (≈ 9.25 µM) | 6.25 (≈ 9.25 µM) |
| CSc1cnc2c(O)c(C(=O)NC(C(=O)NC3C(=O)N4C(C(=O)O)=C(CSc5nnc(C)s5)CSC34)c3ccc(CO)cc3)cnc2n1 (centres unmarked) [Example 104] | 0.39 (≈ 0.537 µM) | 6.25 (≈ 8.6 µM) | 3.13 (≈ 4.31 µM) | 1.56 (≈ 2.15 µM) | 12.5 (≈ 17.2 µM) | 12.5 (≈ 17.2 µM) | 6.25 (≈ 8.6 µM) | 6.25 (≈ 8.6 µM) |
| COc1ccc2ncc(C(=O)NC(C(=O)NC3C(=O)N4C(C(=O)O)=C(CSc5cnn[nH]5)CSC34)c3ccc(CO)cc3)c(O)c2n1 (centres unmarked) [Example 106] | 0.2 (≈ 0.295 µM) | 3.13 (≈ 4.61 µM) | 1.56 (≈ 2.3 µM) | 1.56 (≈ 2.3 µM) | 6.25 (≈ 9.21 µM) | 12.5 (≈ 18.4 µM) | 6.25 (≈ 9.21 µM) | 6.25 (≈ 9.21 µM) |
| Cn1nnnc1SCC1=C(C(=O)O)N2C(=O)C(NC(=O)C(NC(=O)c3cnc4cncnc4c3O)c3ccc(CO)cc3)C2SC1 (centres unmarked) [Example 108] | 0.2 (≈ 0.301 µM) | 3.13 (≈ 4.71 µM) | 3.13 (≈ 4.71 µM) | 1.56 (≈ 2.35 µM) | 6.25 (≈ 9.4 µM) | 25 (≈ 37.6 µM) | 6.25 (≈ 9.4 µM) | 12.5 (≈ 18.8 µM) |

The remaining lines, values ahead:

| MIC [1] [µg/mL] | MIC [2] [µg/mL] | MIC [3] [µg/mL] | MIC [4] [µg/mL] | MIC [5] [µg/mL] | MIC [6] [µg/mL] | MIC [7] [µg/mL] | MIC [8] [µg/mL] | Compound |
| --- | --- | --- | --- | --- | --- | --- | --- | --- |
| 0.2 (≈ 0.294 µM) | 3.13 (≈ 4.6 µM) | 1.56 (≈ 2.29 µM) | 1.56 (≈ 2.29 µM) | 6.25 (≈ 9.19 µM) | 12.5 (≈ 18.4 µM) | 6.25 (≈ 9.19 µM) | 6.25 (≈ 9.19 µM) | Cc1nnc(SCC2=C(C(=O)O)N3C(=O)C(NC(=O)C(NC(=O)c4cnc5cccnc5c4O)c4ccc(CO)cc4)C3SC2)s1 (centres unmarked) [Example 96] |
| 0.2 (≈ 0.301 µM) | 1.56 (≈ 2.35 µM) | 1.56 (≈ 2.35 µM) | 1.56 (≈ 2.35 µM) | 6.25 (≈ 9.42 µM) | 25 (≈ 37.7 µM) | 6.25 (≈ 9.42 µM) | 6.25 (≈ 9.42 µM) | Cn1nnnc1SCC1=C(C(=O)O)N2C(=O)C(NC(=O)C(NC(=O)c3cnc4cccnc4c3O)c3ccc(CO)cc3)C2SC1 (centres unmarked) [Example 97] |
| 0.2 (≈ 0.308 µM) | 1.56 (≈ 2.4 µM) | 1.56 (≈ 2.4 µM) | 1.56 (≈ 2.4 µM) | 6.25 (≈ 9.63 µM) | 25 (≈ 38.5 µM) | 6.25 (≈ 9.63 µM) | 6.25 (≈ 9.63 µM) | O=C(O)C1=C(CSc2cnn[nH]2)CSC2C(NC(=O)C(NC(=O)c3cnc4cccnc4c3O)c3ccc(CO)cc3)C(=O)N12 (centres unmarked) [Example 98] |
| 0.2 (≈ 0.287 µM) | 3.13 (≈ 4.5 µM) | 3.13 (≈ 4.5 µM) | 1.56 (≈ 2.24 µM) | 12.5 (≈ 18 µM) | 12.5 (≈ 18 µM) | 6.25 (≈ 8.98 µM) | 6.25 (≈ 8.98 µM) | O=C(O)C1=C(CSc2nnc(CO)s2)CSC2C(NC(=O)C(NC(=O)c3cnc4cccnc4c3O)c3ccc(CO)cc3)C(=O)N12 (centres unmarked) [Example 103] |
| 0.2 (≈ 0.289 µM) | 6.25 (≈ 9.02 µM) | 3.13 (≈ 4.52 µM) | 0.78 (≈ 1.13 µM) | 12.5 (≈ 18 µM) | 12.5 (≈ 18 µM) | 6.25 (≈ 9.02 µM) | 6.25 (≈ 9.02 µM) | Cc1nc2ncc(C(=O)NC(C(=O)NC3C(=O)N4C(C(=O)O)=C(CSc5nnnn5C)CSC34)c3ccc(CO)cc3)c(O)c2nc1C (centres unmarked) [Example 105] |
| 0.1 (≈ 0.138 µM) | 3.13 (≈ 4.33 µM) | 1.56 (≈ 2.16 µM) | 1.56 (≈ 2.16 µM) | 6.25 (≈ 8.65 µM) | 12.5 (≈ 17.3 µM) | 6.25 (≈ 8.65 µM) | 6.25 (≈ 8.65 µM) | Cc1nnc(SCC2=C(C(=O)O)N3C(=O)C(NC(=O)C(NC(=O)c4cnc5ccc(N(C)C)nc5c4O)c4ccc(CO)cc4)C3SC2)s1 (centres unmarked) [Example 107] |
